Assays:
[1] = test system: BAX expression in HepG2 xenografts; experiment: Western blot, BAX in HepG2 xenografts; assay type: in vivo, Balb/c nude mice; conditions: 0.2, 1.0 and 5.0 mg/kg
Protocol: (§1) The HepG2 cells xenografts were established using the Balb/c nude mice (female, 7-week-old, 17–19 g, n = 30) (Shanghai Laboratory Animal Center, Shanghai Shi, China) were used to investigate the anti-hepatoma effect of 96. Animal experiments were reviewed and approved by the Binzhou Medical University Experimental Animal Committee. Briefly, HepG2 cells (1 × 10^7/0.2 ml PBS/mouse) were inoculated subcutaneously. Three days after the inoculation, the mice were randomly divided into five groups: the saline treated group (Control), 96 (0.2 mg/kg) group, 96 (1.0 mg/kg) treated group, 96 (5.0 mg/kg) treated group, and DOX (1.0 mg/kg) treated group. 96 were dissolved in saline containing 1% of DMSO and administered intraperitoneally every 2 d for 20 days. DOX was also administered intraperitoneally every 2 d for 20 d. The body weight and HepG2 xenografts volumes were recorded from the day of treatment, and xenografts volumes were calculated using the equation: tumour volume = length×(width)[2]×π/6. At the end of the experiment, mice were sacrificed and the xenografts were obtained for western blotting, HE staining and immunohistochemistry staining.
Western blotting was performed to detect the expression of Bcl-2, Bax and C-caspase-3 in HepG2 xenografts. Fresh HepG2 xenografts tissues were lysed and the obtained proteins were processed as the protein obtained from the HepG2 cells.

[2] = test system: TNF-α expression in HepG2 xenografts; experiment: Immunohistochemistry staining of TNF-α in HepG2 xenografts; assay type: in vivo, Balb/c nude mice; conditions: 96 5.0 mg/kg, DOX 1.0 mg/kg, versus model group
Protocol: as §1
The HepG2 xenografts tissues were embedded using the paraffin, and sectioned for HE staining and immunohistochemistry staining. HE staining was performed routinely. The immunohistochemistry staining carried out as following. […]

[3] = test system: BAX expression in HepG2 cells; experiment: Western blot, BAX expression in HepG2 cells; assay type: cell-based, human; conditions: HepG2, 1.0, 2.0, and 4.0 μM
Protocol: (§2) The HepG2 cells were treated with BAP 96 at different concentrations (1.0, 2.0, and 4.0 µM) for 3 h, and washed twice by PBS. The cells were lysed and the extracted proteins of cell lysates were separated by 10% SDS-PAGE gel electrophoresis, then transferred onto polyvinylidene fluorides membranes. The membranes were probed with antibodies and visualized using an enhanced chemiluminescence (ECL) detection kit.

[4] = test system: p-IκBα in TNF-α-stimulated HepG2 cells; experiment: TNF-α-stimulated phosphorylation of IκBα in HepG2 cells; assay type: cell-based, human; conditions: HepG2, 1.0, 2.0, and 4.0 μM
Protocol: as §2
It is known that NF-κB has been implicated in the crossroad of inflammation and cancer[25]^,[26]. In our previous study, some BAPs (such as 23 and 67) could inhibit NF-κB activation by inhibiting the phosphorylation of NF-κB (P65) and IκB[13]^,[14]. Herein, it is an urgent to resolve whether 96 has the same mechanism of action as 23 and 67. Therefore, the RAW264.7 cells were pretreated with LPS, and then treated with different concentrations (1.0, 2.0, 4.0 μM) of 96. […] Similarly, the HepG2 cells were pretreated with TNF-α, then treated with different concentrations (1.0, 2.0, and 4.0 μM) of 96.

[5] = test system: NF-κB p65 nuclear translocation in LPS-stimulated RAW264.7 cells; experiment: NF-κB p65 nuclear translocation, immunofluorescence, RAW264.7; assay type: cell-based; conditions: RAW264.7, LPS 1.0 μg/mL, 4.0 μM
Protocol: (§3) RAW264.7 cells were pretreated in 96-well plates with LPS (1 μg/mL) for 15 min and then treated with 96 for 2 h. Similarly, HepG2 cells were pretreated with TNF-α (10 ng/mL) for 15 min and then treated with 96 for 4 h. The cells were fixed with 2% paraformaldehyde for 15 min at 37 °C and permeabilized using 0.1% Triton X-100 for 10 min at RT. After blockage with 3% BSA for 30 min, the cells were incubated with anti-NF-κB p65 antibody (NOVUS BIOLOGICALS, Colorado, USA) at 4 °C overnight. After washing, the anti-mouse Alexa488-conjugated secondary antibody (Jackson Immuno Research, West Grove, PA) was incubated for 30 min at RT. After washed with PBS, the cells were incubated in 4-6-diamidino-2-phenyindole (DAPI; Sigma, St. Louis, MO) for 15 min in the dark at RT. The cell images were simultaneously viewed using a microscopy system in High Throughput Screen (Operetta, PerkinElmer, Waltham, MA).

[6] = test system: human acute mononuclear granulocyte leukaemia (THP-1); experiment: Cytotoxicity, MTT assay, THP-1; assay type: cell-based; conditions: for IC50: MTT, 24 h
In short: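 Seed 1 × 10^4 cells/well, 24 h; treat 24 h, 10 concentrations 0.01–50 μg/mL, final DMSO 0.1% v/v; MTT 4 h, 37 °C; DMSO solubilisation; OD 570 nm. Viability % vs untreated; IC50, n = 3.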

[7] = test system: C-caspase-3 expression in HepG2 cells; experiment: Western blot, C-caspase-3 expression in HepG2 cells; assay type: cell-based, human; conditions: HepG2, 1.0, 2.0, and 4.0 μM
Protocol: as §2

[8] = test system: NF-κB p65 nuclear translocation in TNF-α-stimulated HepG2 cells; experiment: NF-κB p65 nuclear translocation, immunofluorescence, HepG2; assay type: cell-based, human; conditions: HepG2, TNF-α 10 ng/mL, 4.0 μM
Protocol: as §3

Question: Which results are given for CN1CC(=Cc2cccc(N=Cc3cc(Br)ccc3O)c2)C(=O)C(=Cc2ccccc2F)C1 [Compound 96]?
Answer: Expression of BAX in HepG2 xenografts [1]: significantly increased in a dose-dependent manner; TNF-α expression, immunohistochemistry [2]: significantly reduced; Expression of pro-apoptotic protein BAX [3]: dose-dependently increased; Phosphorylation of IκBα induced by TNF-α [4]: dose-dependent downward trend; p65 nuclear translocation [5]: prevented the p65 nuclear translocation; IC50 ([6]; Homo sapiens, THP-1, 24 h): < 2 µM; IC50 [6]: 1.1 ± 0.6 µM; THP-1 SI (selectivity index) ([6]; quotient of IC50 towards LO2 cells): 18.1; Expression of C-caspase-3 [7]: dose-dependently increased; p65 nuclear translocation [8]: prevented the p65 nuclear translocation
